# “Also recorded” adds a separate entry of the source. Read-outs that look alike come from different tables or passages of the source.
# How the values were obtained:
# in vitro = details: Chinook salmon
# IPNV [1] = test: Survival of IPNV-infected Atlantic salmon fry treated with acivicin by immersion; assay type: in vivo
# reovirus = details: Balb/c cells; Keast et al. (1992); cited from earlier work
# Stability in solution = assay type: physicochemical
# IPNV [2] = test: Survival of naturally infected rainbow trout fry treated with acivicin; assay type: in vivo, rainbow trout (Onchorhynchus mykiss)
# Description: FIG. 4 is a graph showing the effect of acivicin treatment on the survival of rainbow trout fry naturally infection with IPNV. The fish were followed for 30 days starting at day one of the acivicin treatments, to detect and document deaths. The data are presented in terms of percent survival: • ●---●: untreated naturally infected fish, positive control. • σ--σ: naturally infected fish treated with 9 μg/ml of Acivicin.
# Acivicin was tested in vivo on thirty rainbow trout (Onchorhynchus mykiss). […] The fish were followed for 30 days following the first day of the acivicin treatments. Deaths were documented and presented in terms of percent survival. Results from methods assessing the effect of acivicin treatment on the survival of the trout fry naturally infected are shown in the graph at FIG. 4. Thirty days after the acivicin administration began, 90% of the trout fry had survived , while only 30% of the untreated control group had survived the same 30 day period. […] By contrast, in the untreated fish group, deaths continued during the first 25 days of the observation period.
# IPNV particles = assay type: cell-based, infectious pancreatic necrosis virus (IPNV); details: acivicin 25 and 70 μg/ml, 24 and 48 h.p.i.
# IPNV genomic RNA = assay type: cell-based, infectious pancreatic necrosis virus (IPNV)
# IPNV [3] = test: Modified viral plaque inhibition assay with pre-incubation of virus (virus cell entry); assay type: cell-based, infectious pancreatic necrosis virus (IPNV); details: for EC50: Infectious pancreatic necrosis virus
# Description: Compounds derived from isoxazol are assayed for their ability to inhibit viral entry into the cell. To determine if acivicin blocks the entry of IPNV, a modified viral plaque inhibition assay was conducted. […] Control viral samples were not pre-incubated with acivicin. […] Overnight incubation of the virus in acivicin increased the ability of the isoxazol compound to inhibit viral plaques by 38 percent.
# [4] = Uninfected Atlantic salmon fry treated with acivicin (toxicity control); assay type: in vivo; details: uninfected fish treated with 14 μg/ml acivicin
# Description: Starting nine days post-infection (day 9), surviving fish are divided into four groups of forty fish each and treated with 0, 7.0, 10.8, or 14.0 μg/ml of acivicin by immersion in a 2 hour daily bath containing […]. One group corresponded to untreated fish, and the other three groups corresponded to fish groups treated with different concentrations of acivicin. As a negative control, there were two groups of 40 healthy fish in each; one group corresponded to an uninfected fry administered 14 μg/ml of acivicin while the other group was not infected or administered acivicin. Daily treatment in acivicin continued through day 21 post-infection (day 21). The fish were followed for 36 days post-infection to detect and document mortality.
# IPNV [5] = details: at 100 to 300 μg/ml; cited from earlier work
# IPNV [6] = details: cited from earlier work
# IPNV strain VR-299 [7] = details: cited from earlier work
# IPNV strain VR-299 [8] = test: Virus plaque inhibition assay; assay type: cell-based; details: Infectious pancreatic necrosis virus, CHSE-214, 72 h, read-out: EC50, effective antiviral concentration required to inhibit IPNV plaque formation by 50%
# IPNV [9] = test: Survival of IPNV-infected Atlantic salmon fry treated with neomycin by immersion; details: neomycin 10, 40 and 80 ppm, 1 hour daily bath through day 23
# [10] = acivicin 25 and 70 μg/ml, 24 and 48 h.p.i.
compound,measurement,setting,value
"Nc1ncnc2c1ncn2CC(O)C(=O)O (centres unmarked) [AHPA, 3-adenine-9-yl-2-hydroxypropanoic acid]",CC50 at 3 days,in vitro,75 µg/mL
"N[C@H](C(=O)O)[C@@H]1CC(Cl)=NO1 [Acivicin, L (alpha S, 5S)-alpha-amino-3-chloro-4.5-dihydro-5-isoxazolacetic acid]",CC50,in vitro,> 100 µg/mL
same,Deaths after acivicin treatments were terminated,"IPNV [1]; days 21-36, all three treated groups, untreated infected deaths reached 54 percent",no deaths observed
same,Day post-treatment by which deaths stopped completely,"IPNV [1]; each of the treated groups, treatment began day 9 post-infection",≤ 10 day post-treatment
same,Mortality rate (accumulated deaths),"IPNV [1]; infected fish, 7.0 μg/ml acivicin, 2 hour daily bath from day 9 to 21 post-infection, untreated infected 30%",30%
same,Survival,"IPNV [1]; infected fish, 10.5 μg/ml acivicin",92%
same,Accumulated deaths,"IPNV [1]; infected fish, 10.5 μg/ml acivicin, 2 hour daily bath from day 9 to 21 post-infection",8%
same,Survival,"IPNV [1]; infected fish, 14 μg/ml acivicin",89%
same,Mortality,"IPNV [1]; infected fish, 14 μg/ml acivicin, 2 hour daily bath from day 9 to 21 post-infection",11%
same,Concentration inhibiting reovirus replication,reovirus,0.1 µg/mL
same,Stability in solution,Stability in solution,stable in solution
same,Day of treatment by which all deaths occurred,"IPNV [2]; 9 μg/ml acivicin, 15 day protocol, untreated deaths continued 25 days",≤ 12 days
same,Survival thirty days after administration began,"IPNV [2]; fry 1.0±0.4 g, 9 μg/ml acivicin, daily bath of two hours, 15 days, untreated control 30%",90%
same,Survival,"IPNV [2]; fry of approximately 0.8 g, treated 12 days with 9 μg/ml acivicin",98%
same,Effect on IPNV particle formation,IPNV particles,inhibits the formation of IPNV viral particles
same,Effect on IPNV genomic RNA synthesis,IPNV genomic RNA; [10],did not inhibit
same,Effect on IPNV polypeptide synthesis,IPNV polypeptides; [10],did not inhibit
same,"EC50, virus samples pre-incubated 2 hours, versus not pre-incubated",IPNV [3]; 2 hours pre-incubation,not significantly different
same,EC50,"IPNV [3]; no pre-incubation, read-out: EC50, virus samples without pre-incubation",4 µg/mL
same,EC50,"IPNV [3]; pre-incubation with 1 to 6 μg/ml acivicin overnight, read-out: EC50, virus samples pre-incubated overnight with acivicin",2.5 µg/mL
same,Toxicity in fish,[4],not toxic in fish
"Nc1ncnc2c1ncn2C[C@H](O)CO [DHPA, (S)-9-(2.3-dihydroxypropyl) adenine]",Cytotoxicity in RTG-2 cells,IPNV [5],without presenting cytotoxicity
"C#Cc1c(C(N)=O)ncn1[C@@H]1O[C@H](CO)[C@@H](O)[C@H]1O [EICAR, 5-ethynyl-1-β-ribofuranosylimidazole-carboxamide]",Deaths among experimentally IPNV-infected fry,"IPNV [6]; rainbow trout and Coho salmon fry, given first day after infection, Moya et al. (2000)",fewer deaths occurred among the infected fry
same,EC50 for IPNV,"IPNV strain VR-299 [7]; Jashés et al., Antiviral Res. 29:309 (1996)",0.01 µg/mL
"COc1c(C)c2c(c(O)c1C/C=C(\C)CCC(=O)O)C(=O)OC2 [Myconhenolic Acid, 6-(4-hydroxy-6-methoxy-7-methyl-3-oxo-5-phthalanyl)-4-methyl-4-hexenoic acid]",CC50 at 3 days,in vitro,> 50 µg/mL
same,EC50,IPNV strain VR-299 [8],0.5 µg/mL
NC(=O)c1ncn([C@@H]2O[C@H](CO)[C@@H](O)[C@H]2O)n1 [Ribavirin],Efficacy against IPNV in vivo,"IPNV [6]; Migus et al. (1980), Savan et al. (1980)",no efficacy in vivo
same,Inhibition of IPNV replication in vitro,IPNV strain VR-299 [7]; Migus et al. (1980),inhibit IPNV replication in vitro; also recorded: efficiently inhibits IPNV replication in vitro
neomycin,Effect on IPNV genomic RNA synthesis,"IPNV genomic RNA; neomycin 4 mg/ml added 1, 3, 5, 7 h.p.i., harvest 24 h.p.i.",inhibited the IPNV RNA synthesis
same,Effect on IPNV polypeptide synthesis,"IPNV polypeptides; neomycin 4 mg/ml added 1, 3, 5, 7 h.p.i., 24 h.p.i.",does not inhibit IPNV polypeptide synthesis
same,"Mortality outbreak, treatment from day thirteen post-infection",IPNV [9],stop the mortality outbreak immediately
same,"Mortality outbreak, treatment from day thirteen post-infection",IPNV [9]; listed as neomycin,stopped dying immediately

# From patent publication US7652050B2, “Methods for increasing the survival of aquatic animals infected with an aquatic virus” (Laboratorio de Siagnóstico GAM S.A, priority 2001, dated 2010)
